Assays:
[1] = target: T1, Ephrin type-B receptor 2 (Homo sapiens) (UniProt P29323); test: Inhibition of EphB2 at 0.1 uM; values are per cent of control
T1 sequence (whole entry): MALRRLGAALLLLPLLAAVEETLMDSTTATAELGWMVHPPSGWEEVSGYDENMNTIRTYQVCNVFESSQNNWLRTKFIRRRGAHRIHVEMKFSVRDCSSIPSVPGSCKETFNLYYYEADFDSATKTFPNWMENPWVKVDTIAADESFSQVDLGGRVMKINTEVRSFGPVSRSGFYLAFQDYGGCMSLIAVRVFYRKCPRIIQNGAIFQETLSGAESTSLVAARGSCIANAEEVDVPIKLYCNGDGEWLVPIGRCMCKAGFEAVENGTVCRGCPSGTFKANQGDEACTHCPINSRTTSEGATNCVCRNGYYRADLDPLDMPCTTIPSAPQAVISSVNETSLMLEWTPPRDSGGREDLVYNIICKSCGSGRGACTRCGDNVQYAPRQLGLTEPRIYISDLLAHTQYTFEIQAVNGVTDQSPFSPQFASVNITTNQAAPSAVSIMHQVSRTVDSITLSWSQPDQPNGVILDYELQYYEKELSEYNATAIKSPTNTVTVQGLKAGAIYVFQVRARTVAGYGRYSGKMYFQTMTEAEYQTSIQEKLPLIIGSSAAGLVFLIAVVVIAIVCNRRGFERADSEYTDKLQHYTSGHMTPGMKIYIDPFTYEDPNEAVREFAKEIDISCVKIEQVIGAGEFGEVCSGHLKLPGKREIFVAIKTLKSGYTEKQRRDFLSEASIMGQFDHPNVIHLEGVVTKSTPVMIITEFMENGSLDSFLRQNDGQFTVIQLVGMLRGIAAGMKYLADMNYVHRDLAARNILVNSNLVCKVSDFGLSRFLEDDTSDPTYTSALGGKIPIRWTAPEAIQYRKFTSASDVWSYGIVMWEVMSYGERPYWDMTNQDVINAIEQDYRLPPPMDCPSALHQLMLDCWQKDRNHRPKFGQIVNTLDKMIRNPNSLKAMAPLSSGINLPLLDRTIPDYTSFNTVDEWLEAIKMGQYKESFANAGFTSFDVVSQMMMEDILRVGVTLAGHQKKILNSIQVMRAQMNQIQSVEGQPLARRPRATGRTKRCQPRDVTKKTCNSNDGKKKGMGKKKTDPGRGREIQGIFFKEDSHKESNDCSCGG

[2] = target: Tyrosine-protein kinase JAK2 (Homo sapiens) (UniProt O60674); test: Inhibition of JAK2 at 0.1 uM; values are per cent of control
Sequence of Tyrosine-protein kinase JAK2 (Homo sapiens) (O60674 whole entry): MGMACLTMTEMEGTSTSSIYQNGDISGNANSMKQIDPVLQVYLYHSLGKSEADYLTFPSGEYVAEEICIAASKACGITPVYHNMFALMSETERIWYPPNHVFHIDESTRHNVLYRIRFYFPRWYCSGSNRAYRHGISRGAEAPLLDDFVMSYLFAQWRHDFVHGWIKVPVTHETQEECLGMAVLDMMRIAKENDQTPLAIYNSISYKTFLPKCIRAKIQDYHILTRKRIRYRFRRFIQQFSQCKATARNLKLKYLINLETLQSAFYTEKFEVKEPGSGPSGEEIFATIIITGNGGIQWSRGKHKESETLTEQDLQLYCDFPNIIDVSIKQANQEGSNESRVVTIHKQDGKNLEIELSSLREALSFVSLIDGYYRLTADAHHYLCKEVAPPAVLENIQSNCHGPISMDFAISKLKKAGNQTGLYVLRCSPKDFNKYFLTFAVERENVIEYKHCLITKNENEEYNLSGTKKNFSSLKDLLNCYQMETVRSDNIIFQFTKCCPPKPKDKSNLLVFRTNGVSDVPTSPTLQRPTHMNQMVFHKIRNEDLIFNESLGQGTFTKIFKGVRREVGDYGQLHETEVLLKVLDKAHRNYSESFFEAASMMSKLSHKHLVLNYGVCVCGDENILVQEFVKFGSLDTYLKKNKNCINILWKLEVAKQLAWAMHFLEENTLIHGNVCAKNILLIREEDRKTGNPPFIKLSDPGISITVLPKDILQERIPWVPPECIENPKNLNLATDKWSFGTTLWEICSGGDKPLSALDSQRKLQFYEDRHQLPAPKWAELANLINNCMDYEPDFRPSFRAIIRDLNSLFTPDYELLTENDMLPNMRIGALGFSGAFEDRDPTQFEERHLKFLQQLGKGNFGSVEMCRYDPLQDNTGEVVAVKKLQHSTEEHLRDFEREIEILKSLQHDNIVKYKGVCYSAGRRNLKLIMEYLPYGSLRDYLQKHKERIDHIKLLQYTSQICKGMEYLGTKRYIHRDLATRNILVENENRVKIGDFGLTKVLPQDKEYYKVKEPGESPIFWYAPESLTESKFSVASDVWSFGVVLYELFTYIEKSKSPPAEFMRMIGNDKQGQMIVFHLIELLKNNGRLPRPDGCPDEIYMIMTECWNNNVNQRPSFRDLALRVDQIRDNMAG

[3] = target: T2, Inhibitor of nuclear factor kappa-B kinase subunit beta (Homo sapiens) (UniProt O14920); test: Inhibition of IKK-beta at 0.1 uM; values are per cent of control
T2 sequence (whole entry): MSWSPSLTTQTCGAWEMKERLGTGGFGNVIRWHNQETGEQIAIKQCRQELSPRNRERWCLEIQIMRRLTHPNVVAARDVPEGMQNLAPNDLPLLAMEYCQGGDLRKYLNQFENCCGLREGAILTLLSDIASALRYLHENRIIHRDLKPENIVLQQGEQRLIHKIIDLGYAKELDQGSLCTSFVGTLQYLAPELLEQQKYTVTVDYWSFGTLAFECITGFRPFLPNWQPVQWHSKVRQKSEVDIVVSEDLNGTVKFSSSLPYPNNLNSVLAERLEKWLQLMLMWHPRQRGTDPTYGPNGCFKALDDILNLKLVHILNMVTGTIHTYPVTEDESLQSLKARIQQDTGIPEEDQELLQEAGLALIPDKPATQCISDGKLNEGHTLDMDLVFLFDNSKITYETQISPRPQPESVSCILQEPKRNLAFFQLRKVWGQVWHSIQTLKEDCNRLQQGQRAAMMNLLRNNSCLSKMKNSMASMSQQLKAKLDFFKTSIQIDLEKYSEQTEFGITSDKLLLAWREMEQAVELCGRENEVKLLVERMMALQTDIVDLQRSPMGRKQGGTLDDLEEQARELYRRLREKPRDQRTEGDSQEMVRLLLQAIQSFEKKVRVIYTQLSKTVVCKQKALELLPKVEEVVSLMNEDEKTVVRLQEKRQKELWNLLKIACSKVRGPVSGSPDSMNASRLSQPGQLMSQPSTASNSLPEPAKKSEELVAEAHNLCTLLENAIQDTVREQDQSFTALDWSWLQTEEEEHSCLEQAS

[4] = target: T3, Activin receptor type-1B (Homo sapiens) (UniProt P36896); test: Inhibition of ALK4 at 1 uM; values are per cent of control
T3 sequence (whole entry): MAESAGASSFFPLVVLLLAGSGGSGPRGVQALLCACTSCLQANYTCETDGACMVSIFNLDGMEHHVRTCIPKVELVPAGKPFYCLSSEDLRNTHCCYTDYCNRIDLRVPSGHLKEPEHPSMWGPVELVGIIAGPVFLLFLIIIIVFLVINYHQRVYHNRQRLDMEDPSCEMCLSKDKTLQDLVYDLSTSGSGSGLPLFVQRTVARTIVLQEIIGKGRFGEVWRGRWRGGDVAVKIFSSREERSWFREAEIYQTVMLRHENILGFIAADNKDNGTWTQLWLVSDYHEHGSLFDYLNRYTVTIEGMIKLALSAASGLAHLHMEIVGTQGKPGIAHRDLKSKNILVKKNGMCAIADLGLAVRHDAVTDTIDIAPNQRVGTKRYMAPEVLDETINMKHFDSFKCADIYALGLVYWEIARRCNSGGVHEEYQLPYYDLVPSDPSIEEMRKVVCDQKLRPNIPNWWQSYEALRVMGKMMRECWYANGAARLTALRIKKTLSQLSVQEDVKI

Row | residual activity [1] [%] | residual activity [2] [%] | residual activity [3] [%] | residual activity [4] [%] | Compound
1 | 99 | 16 | 103 | 103 | Cc1ccc2cc(-c3n[nH]c4ccc(NC5CCN(Cc6ccccc6)CC5)cc34)[nH]c2c1
2 | 87 | 2 | 99 | 114 | Cc1ccc2cc(-c3n[nH]c4ccc(NC5CCNC5)cc34)[nH]c2c1 (stereo not drawn)

— ChEMBL document CHEMBL1681705, “Optimisation of ITK inhibitors through successive iterative design cycles” (Bioorg Med Chem Lett, 2011)
